Reference: patent publication US20130225830A1, “POLYMORPHS OF FEBUXOSTAT” (MAPI PHARMA LIMITED, priority 2010, published 2013)
Values after ≈ are worked out from the molar mass of the structure shown. Where two headings read alike, the source gives them in different places.

Experiment: Aqueous solubility measurements
Type: physicochemical
Settings: for pH: final pH of saturated solution; for solubility at 24 h: thermodynamic from solid, read-out: HPLC solubility
Method: Testing media: water, pH 1.2, 4.5, 6.8, 7.4 USP buffers, 0.01 N HCl, 0.1 N HCl, SGF, FaSSIF, FeSSIF.
The various testing media were prepared as follows:
pH 1.2 (USP): 50 mL of 0.2 M potassium chloride solution were placed in a 200 mL volumetric flask to which 85.0 mL of 0.2M hydrochloric acid solution were added followed by the addition of water to obtain the required volume.
pH 4.5 (USP): 50 mL of 0.2 M potassium biphthalate solution were placed in a 200 mL volumetric flask to which 8.8 mL of 0.2 M sodium hydroxide solution were added followed by the addition of water to obtain the required volume.
pH 6.8 (USP): 50 mL of 0.2 M monobasic potassium phosphate solution were placed in a 200 mL volumetric flask to which 22.4 mL of 0.2 M sodium hydroxide solution were added followed by the addition of water to obtain the required volume.
pH 7.4 (USP): 50 mL of 0.2 M monobasic potassium phosphate solution were placed in a 200 mL volumetric flask to which 39.1 mL of 0.2 M sodium hydroxide solution were added followed by the addition of water to obtain the required volume.
Simulated gastric fluid (SGF): 0.01 N HCl, 0.05% sodium lauryl sulfate, and 0.2% NaCl.
Fasted state simulated intestinal fluid (FaSSIF): 29 mM NaH2PO4, 3 mM Na taurocholate, 0.75 mM lecithin, 103 mM NaCl, and NaOH to obtain pH 6.5.
Fed state simulated intestinal fluid (FeSSIF): 144 mM acetic acid, 15 mM Na taurocholate, 3.75 mM lecithin, 204 mM NaCl, and NaOH to obtain pH 5.0.
Testing procedure: The tested febuxostat form was placed in each of the different media and was kept shaken for 24 hours at 25° C. Then, the saturated solution was filtered. The concentration of the febuxostat form in filtrate was determined by HPLC. The final pH was then tested. The test was conducted in duplication.

[1] = media 0.01N HCl, 24 hours at 25° C.
[2] = media 0.1N HCl, 24 hours at 25° C.
[3] = media FaSSIF, 24 hours at 25° C.
[4] = media FeSSIF, 24 hours at 25° C.
[5] = media pH 1.2 (USP), 24 hours at 25° C.
[6] = media pH 4.5 (USP), 24 hours at 25° C.
[7] = media pH 6.8 (USP), 24 hours at 25° C.
[8] = media pH 7.4 (USP), 24 hours at 25° C.
[9] = media water, shaken 24 hours at 25° C.
[10] = media water, 24 hours at 25° C.
[11] = pH1.2 USP buffer, 0.01N HCl, 0.1N HCl and SGF
[12] = pH6.8 USP buffer, pH7.4 USP buffer, FaSSIF, FeSSIF

| SMILES | pH [1] | pH [2] | pH [3] | pH [4] | pH (media SGF, 24 hours at 25° C.) | pH [5] | pH [6] | pH [7] | pH [8] | pH [9] | Visual solubility [1] | Visual solubility [2] | HPLC solubility [3] [µg/mL] | Visual solubility [3] | HPLC solubility [4] [µg/mL] | Visual solubility [4] | Visual solubility (media SGF, 24 hours at 25° C.) | Visual solubility [5] | HPLC solubility [6] [µg/mL] | Visual solubility [6] | other results |
| --- | --- | --- | --- | --- | --- | --- | --- | --- | --- | --- | --- | --- | --- | --- | --- | --- | --- | --- | --- | --- | --- |
| Cc1nc(-c2ccc(OCC(C)C)c(C#N)c2)sc1C(=O)O [Form XI, 2-(3-cyano-4-isobutoxyphenyl)-4-methyl-5-thiazolecarboxylic acid] | 1.981 | 0.967 | 6.336 | 4.998 | 2.114 | 1.132 | 4.479 | 6.684 | 6.905 | 8.106 | few particles | few particles | 521.19 | Turbid + few particles | 149.95 | Turbid + few particles | few particles | few particles | 0.49 | few particles | HPLC solubility [7]: 931.90 µg/mL; Visual solubility [7]: Turbid + few particles; HPLC solubility [8]: 4464.94 µg/mL; Visual solubility [8]: Slightly turbid + few; HPLC solubility [10]: 33.82 µg/mL; Visual solubility [10]: Turbid + few particles; aqueous solubility (in words) [11]: poor solubility; aqueous solubility (in words) [12]: good solubility |
| Cc1nc(-c2ccc(OCC(C)C)c(C#N)c2)sc1C(=O)O [Form V, 2-(3-cyano-4-isobutoxyphenyl)-4-methyl-5-thiazolecarboxylic acid] | 2.003 | 0.951 | 6.384 | 4.995 | 2.108 | 1.157 | 4.452 | 6.641 | 6.960 | 7.520 | few particles | few particles | 513.37 | Turbid + few particles | 180.61 | Turbid + few particles | few particles | few particles | 0.38 | Turbid + few particles | solubility at 24 h (USP buffer pH 6.8, 25 °C, pH 6.8, aqueous buffer, media pH 6.8 (USP), 24 hours at 25° C.): 1120 µg/mL (≈ 3550 µM); Visual solubility [7]: Turbid + few particles; HPLC solubility [8]: 4317.12 µg/mL; Visual solubility [8]: Slightly turbid; Visual solubility [10]: Turbid + few particles; aqueous solubility (in words) [11]: poor solubility; aqueous solubility (in words) [12]: good solubility; solubility at 24 h (water, 25 °C, water, media water, 24 hours at 25° C.): 54.9 µg/mL (≈ 173 µM) |
| Cc1nc(-c2ccc(OCC(C)C)c(C#N)c2)sc1C(=O)O [Form IX, 2-(3-cyano-4-isobutoxyphenyl)-4-methyl-5-thiazolecarboxylic acid] | 2.078 | 1.060 | 6.246 | 4.983 | 2.097 | 1.242 | 4.524 | 6.477 | 6.690 | 5.403 | Turbid + few particles | Turbid + few particles | 606.65 | Turbid | 192.53 | Turbid | Turbid | Turbid + few particles | 0.78 | Turbid + few particles | solubility at colon-simulated media and intestinal fluids (in words) (colon-simulated media (pHs=6.8-7.4) and intestinal fluids): improved solubility; HPLC solubility [7]: 1409.99 µg/mL; Visual solubility [7]: Turbid + few particles; HPLC solubility [8]: 4836.10 µg/mL; Visual solubility [8]: Slightly turbid; HPLC solubility [10]: 32.99 µg/mL; Visual solubility [10]: Turbid + few particles; aqueous solubility (in words) [11]: poor solubility; aqueous solubility (in words) [12]: good solubility |
